The results in this text go back to ChEMBL document CHEMBL1133823, “Antiviral drug design: computational analyses of the effects of the L100I mutation for HIV-RT on the binding of NNRTIs” (Bioorg Med Chem Lett, 2001).

Several values for one entry are separate records, joined by “and”; a condition that tells them apart may be missing. Equal values may be shown once.

Experiment [1] is described as follows: Fold resistance (L100I/ WT) (as per ref 7 in the article).
Experiment [2] in a line: Fold resistance (L100I/ WT) (as per ref 12 in the article).
Experiment [3] can be described thus: Fold resistance (L100I/ WT) (as per ref 8 in the article).
The nature of experiment [4]: Fold resistance (L100I/ WT) (as per ref 6 in the article).
The target of experiment [5] is Human immunodeficiency virus type 1 reverse transcriptase (Human immunodeficiency virus 1, UniProt Q72547, L100I). The experiment is described as follows: Effective concentration required against L100I mutant HIV-1 reverse transcriptase.
Experiment [6] can be described thus: Fold resistance (L100I/ WT) was determined.
Experiment [7] deals with Human immunodeficiency virus type 1 reverse transcriptase (Human immunodeficiency virus 1, UniProt Q72547). Briefly: Effective concentration required against wild type HIV-1 reverse transcriptase.
Experiment [8] in a line: Fold resistance (L100I/ WT) (as per ref 10 in the article).

`Cc1ccnc2c1NC(=O)c1cccnc1N2C1CC1`: the FR in experiment [1] worked out at 2.1; in experiment [2] it was 5; in experiment [3] it was 12.7; in experiment [4], 0.6.
Broadly, the EC50 is the midpoint of the concentration-response curve. Low readings indicate an effect from little substance, high ones a need for much substance. As for `CCOCn1c(Cc2ccccc2)c(C(C)C)c(=O)[nH]c1=O` [EMIVIRINE], the EC50 in experiment [5] was determined as 20 nM; in experiment [7], 2 nM. Moreover, the FR in experiment [6] was determined as 10.
For `CC(C)=CCOc1cc(NC(=S)c2ccoc2C)ccc1Cl` [UC 781], in that order: 24 nM, 9 nM and 2.7.
Consider `CC(C)=CCN1Cc2cc(Cl)cc3[nH]c(=S)n(c23)C[C@@H]1C`, for which the EC50 in experiment [5] turned out to be 5600 nM; in experiment [7] it was 60 nM. Also, the FR in experiment [6] is 93.3.
As for `O=C1Nc2ccc(Cl)cc2[C@@](C#CC2CC2)(C(F)(F)F)O1`, the FR in experiment [8] was 5.9 and 8.6.
